Literature values in PMC11946513, “Modulation of the substrate preference of a MYST acetyltransferase by a scaffold protein” (The Journal of Biological Chemistry, 2025).

Target: KAT6A MYST domain
Conditions: binding to the KAT6A MYST domain; acetyl-CoA competitive; read-out: inhibition constant (Ki)
Experimental: The active enzyme concentration for each form of KAT6A was obtained through tight-binding inhibition ([48]) by PF-9363, which binds to the KAT6A MYST domain with an inhibition constant (Ki) of ≈0.3 nM ([6]).

Ki: ~0.3 nM
SMILES: COc1cccc(OC)c1S(=O)(=O)Nc1noc2cc(Cn3cccn3)cc(OC)c12 [PF-9363]
